Experimental data reported in patent publication US20130243928A1 (priority 2007, published 2013).

Assay: Distribution (dissolution) of resveratrol in an aliquot of wine with heating
Type: physicochemical
Details: heating up to about 40° C., no added alcohol or other solvent
Excerpt: The size, temperature and heating time for a batch of resveratrol concentrate will vary depending on how much resveratrol is needed to be added. […] Temperature can be measured by placing a thermometer in the batch of wine and timing the process.

For `Oc1ccc(/C=C/c2cc(O)cc(O)c2)cc1` [resveratrol, trans-3,5,4′-trihydroxystilbene], the “amount of resveratrol that can be distributed in an aliquot of wine” value was “about 1.25 (wt/vol)”.
